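Cells were grown in 96-well plates and exposed to each compound for 48 hours at five concentrations; endpoints were interpolated linearly between bracketing concentrations, or set to the highest concentration if not reached. GI50 marks 50% less growth.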 Activity calls are given as the source filed them. No stated cut-off is given here; in the data, active = GI50 up to about 1.1 µM and inactive = higher.
Legend:
Experiment in all cases: growth of human tumour cells (NCI), 48 h
LXFL 529 = test system: LXFL 529
OVCAR-4 = test system: OVCAR-4
CCRF-CEM = test system: CCRF-CEM
MOLT-4 = test system: MOLT-4
HOP-62 = test system: HOP-62
CAKI-1 = test system: CAKI-1
SF-539 = test system: SF-539
NCI-H23 = test system: NCI-H23
DMS-273 = test system: DMS-273
U-251 = test system: U-251
SNB-19 = test system: SNB-19
SK-MEL-28 = test system: SK-MEL-28
SNB-78 = test system: SNB-78
IGROV-1 = test system: IGROV-1
COLO 205 = test system: COLO 205
HOP-92 = test system: HOP-92
SF-295 = test system: SF-295
K562 = test system: K562
SNB-75 = test system: SNB-75
786-0 = test system: 786-0
HCT-15 = test system: HCT-15
SR = test system: SR
M14 = test system: M14
DMS-114 = test system: DMS-114
UACC-62 = test system: UACC-62
SK-MEL-2 = test system: SK-MEL-2
HCT-116 = test system: HCT-116
HOP-18 = test system: HOP-18
DLD-1 = test system: DLD-1
RPMI-8226 = test system: RPMI-8226
SW-620 = test system: SW-620
KM12 = test system: KM12
ACHN = test system: ACHN
SK-MEL-5 = test system: SK-MEL-5
SF-268 = test system: SF-268
SK-OV-3 = test system: SK-OV-3
HCC 2998 = test system: HCC 2998
HL-60 = test system: HL-60
A549 = test system: A549
SN12C = test system: SN12C
UACC-257 = test system: UACC-257
Malme-3M = test system: Malme-3M
NCI-H522 = test system: NCI-H522
OVCAR-3 = test system: OVCAR-3
UO-31 = test system: UO-31
OVCAR-5 = test system: OVCAR-5
TK-10 = test system: TK-10
RXF 393 = test system: RXF 393
OVCAR-8 = test system: OVCAR-8
M19-MEL = test system: M19-MEL
KM-20L2 = test system: KM-20L2
HT-29 = test system: HT-29
NCI-H460 = test system: NCI-H460
A498 = test system: A498
EKVX = test system: EKVX
LOX IMVI = test system: LOX IMVI
MDA-MB-435 = test system: MDA-MB-435
NCI-H226 = test system: NCI-H226
NCI/ADR-RES = test system: NCI/ADR-RES
MDA-N = test system: MDA-N
BT-549 = test system: BT-549
Hs-578T = test system: Hs-578T
PC-3 = test system: PC-3
MCF7 = test system: MCF7
T47D = test system: T47D
MDA-MB-231 = test system: MDA-MB-231
DU-145 = test system: DU-145

Measured: GI50

CCOC(=O)NC(=O)c1cn(-c2ccc(CCOC(=O)NCCCCCCNC(=O)OCCc3ccc(-n4c(=O)[nH]cc(C(=O)NC(=O)OCC)c4=O)cc3)cc2)c(=O)[nH]c1=O
inactive: LXFL 529 22.2 µM | OVCAR-4 > 100 µM | CCRF-CEM 32.6 µM | MOLT-4 58.1 µM | HOP-62 37.6 µM | CAKI-1 > 100 µM | SF-539 23.7 µM | NCI-H23 49.4 µM | DMS-273 > 79.8 µM | U-251 33.2 µM | SNB-19 23.2 µM | SK-MEL-28 > 100 µM | SNB-78 58.2 µM | IGROV-1 75.2 µM | COLO 205 > 100 µM | HOP-92 > 72.4 µM | SF-295 31.6 µM | K562 > 100 µM | SNB-75 27.5 µM | 786-0 48.5 µM | SR > 62.8 µM | M14 > 100 µM | DMS-114 > 75.2 µM | UACC-62 24.1 µM | SK-MEL-2 > 100 µM | HCT-116 > 100 µM | HOP-18 > 100 µM | DLD-1 > 100 µM | RPMI-8226 > 100 µM | SW-620 > 100 µM | KM12 > 100 µM | ACHN 29.4 µM | SK-MEL-5 78.7 µM | SF-268 > 49 µM | SK-OV-3 47.6 µM | HCC 2998 > 100 µM | HL-60 > 100 µM | A549 > 100 µM | SN12C > 100 µM | UACC-257 > 72.8 µM | Malme-3M 50 µM | NCI-H522 22.4 µM | OVCAR-3 > 100 µM | UO-31 > 65.8 µM | OVCAR-5 > 100 µM | TK-10 58.3 µM | RXF 393 > 100 µM | OVCAR-8 40.6 µM | M19-MEL 47 µM | KM-20L2 > 100 µM | HT-29 > 100 µM | NCI-H460 28.8 µM | A498 > 80.4 µM | EKVX 53.2 µM | LOX IMVI 56.6 µM
> 100 µM: HCT-15

COc1cccc2c1C(=O)c1c(O)c3c(c(O)c1C2=O)C[C@@](O)(C(C)=O)C[C@@H]3OC1CC(N(Cc2ccccc2)Cc2ccccc2)C(O)C(C)O1 (some centres not stated)
inactive: MDA-MB-435 4.53 µM | OVCAR-4 15.1 µM | CCRF-CEM 2.43 µM | HOP-62 18.8 µM | CAKI-1 6.03 µM | SF-539 10.9 µM | NCI-H23 18.6 µM | DMS-273 3.78 µM | U-251 13.4 µM | SNB-19 21.7 µM | SK-MEL-28 32.8 µM | SNB-78 2.56 µM | IGROV-1 9.55 µM | COLO 205 14.6 µM | HOP-92 17.8 µM | SF-295 13.6 µM | K562 3.64 µM | SNB-75 30.1 µM | NCI-H226 13.1 µM | NCI/ADR-RES 10.3 µM | M14 2.27 µM | DMS-114 39.8 µM | UACC-62 16.6 µM | SK-MEL-2 16.8 µM | HCT-116 1.84 µM | HOP-18 > 45.5 µM | DLD-1 10.1 µM | RPMI-8226 4.62 µM | SW-620 4.69 µM | KM12 13.1 µM | MDA-N 11.4 µM | BT-549 > 27.5 µM | SK-MEL-5 14.6 µM | SF-268 14.2 µM | SK-OV-3 34 µM | Hs-578T 16.9 µM | PC-3 6.61 µM | HCC 2998 29.4 µM | MCF7 12.4 µM | HL-60 9.55 µM | A549 4.55 µM | SN12C 8.09 µM | UACC-257 26.4 µM | T47D 11.9 µM | MDA-MB-231 10.9 µM | Malme-3M 13.3 µM | NCI-H522 10.4 µM | OVCAR-3 22.8 µM | DU-145 14.1 µM | UO-31 15 µM | OVCAR-5 20.5 µM | TK-10 13.7 µM | RXF 393 30.6 µM | OVCAR-8 4.89 µM | M19-MEL 23.2 µM | KM-20L2 24.9 µM | A498 28.5 µM | EKVX 39.4 µM | LOX IMVI 5 µM
active: LXFL 529 0.69 µM | 786-0 0.713 µM | SR 0.101 µM | ACHN 0.51 µM | HT-29 0.474 µM | NCI-H460 0.653 µM
4.95 µM: HCT-15
